From US6395885B1, “Use of lithium salts of anionic dyes to enhance their light-fastness” (Avecia Limited, priority 1998, dated 2002)

Experiment: Light-fastness of ink jet prints on Xerox Acid paper faded in a weatherometer (colour difference ΔE)
Assay type: physicochemical
Procedure: Each ink was prepared by dissolving the Dye shown in the second column of Table 1 (0.35 g) in water (8.45 g) by adding ammonia and adjusting the pH to 9.5. 2-pyrrolidone (0.5 g), thiodiglycol (0.5 g) and Surfynol 465 (0.2 g) were then added and the mixture was stirred at ambient temperature. The resulting solution was filtered through a 0.45 μm filter to give the ink.
Each ink shown in Table 1 was loaded into a HP 560 ink jet printer and was applied to Xerox Acid paper using the ink jet printer. When the resulting prints had dried a portion of the print was mounted, half covered, and faded in an Atlas Ci35a weatherometer.
The light-fastness of the prints was assessed by measuring the colour difference (ΔE) between the faded and unfaded portions of the print using an X-Rite 939 spectrodensitometer. The time shown in the column marked ΔE in Table 1 refers to the number of hours the print was faded for in the weatherometer.
A low ΔE value indicates a small colour change after fading in the weatherometer and therefore a high light-fastness.
The light-fastness of Dyes (A) and (B) and the individual sodium and lithium salts thereof were measured as described in Example 1; namely by ink jet printing an ink containing the each dye onto Xerox Acid paper and fading the prints using an Xrite Weatherometer.

## COc1cc(N=Nc2cccc(S(=O)(=O)O)c2)ccc1NC(=O)Nc1ccc(N=Nc2cccc(S(=O)(=O)O)c2)cc1OC [Comparative (3), C.I. Direct Yellow 132]
Ink with 3.5 parts dye printed on Xerox Acid paper, faded 50 hours in Atlas Ci35a weatherometer, low ΔE = high light-fastness
  ΔE (50 hours): 10.77
Measured as in Example 1 (ΔE), ink jet print on Xerox Acid paper, 50 hours of fading
  Light-Fastness (after 50 hours): 11
